The values that follow come from US4962024A, “Signal enhancement in assay for an enzyme” (priority 1988, dated 1990).

This assay concerns the target acetyl cholinesterase (AChE) (Homo sapiens, UniProt P22303). The assay can be described thus: Inhibition constants: inhibition of acetyl cholinesterase (AChE), acetyl thiocholine and Ellman's reagent. Format: biochemical. How it is done:
Inhibition constants were measured in 50 mM Tris pH=8.0. Enzyme and inhibitor were incubated at ambient temperature for 20 minutes. Substrate for the enzyme was then added and the rate of hydrolysis was followed spectrophotometrically. The substrate for PLE and RLE was o-nitrophenylbutyrate and for AChE was acetyl thiocholine and Ellman's reagent.
In general terms: In Ellman's method for cholinesterases, released thiocholine reacts with DTNB.

Structures can show the parent of a compound that is named as a salt. Where two headings read alike, the source gives them in different places.

acetyl cholinesterase (AChE), sequence (P22303 32-614): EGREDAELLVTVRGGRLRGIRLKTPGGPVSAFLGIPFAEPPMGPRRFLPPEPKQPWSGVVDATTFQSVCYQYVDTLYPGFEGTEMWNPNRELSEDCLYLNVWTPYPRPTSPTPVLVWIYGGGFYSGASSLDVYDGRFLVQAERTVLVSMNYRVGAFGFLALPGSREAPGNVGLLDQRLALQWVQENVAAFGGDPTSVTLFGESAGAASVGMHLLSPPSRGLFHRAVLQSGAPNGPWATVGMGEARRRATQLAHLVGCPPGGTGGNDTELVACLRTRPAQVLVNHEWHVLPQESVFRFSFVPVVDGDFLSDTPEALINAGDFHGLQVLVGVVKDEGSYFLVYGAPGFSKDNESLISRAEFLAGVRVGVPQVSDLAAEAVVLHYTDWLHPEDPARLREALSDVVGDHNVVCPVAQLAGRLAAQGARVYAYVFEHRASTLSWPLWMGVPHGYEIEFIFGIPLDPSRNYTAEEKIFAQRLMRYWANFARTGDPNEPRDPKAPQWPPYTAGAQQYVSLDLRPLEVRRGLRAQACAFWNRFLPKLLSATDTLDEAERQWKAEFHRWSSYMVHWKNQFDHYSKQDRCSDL

`C[N+](C)(CCCCO)CCCC(=O)C(F)(F)F` [N,N-dimethyl-N-[4-(hydroxy)butyl] 5,5,5-trifluoro-4-oxopentanaminium, hydroxide salt]: the Ki was found to be 6.5e-08 M.

Regarding `C[N+](C)(CCO)CCCC(=O)C(F)(F)F` [N,N-dimethyl-N-[2-(hydroxy)ethyl]-5,5,5-trifluoro-4-oxopentanaminium, hydroxide salt], the Ki (AChE, 50 mM Tris pH=8.0, 20 minutes incubation at ambient temperature, acetyl thiocholine and Ellman's reagent, read-out: Ki (M)* (Esterase)) was 5e-09 M.

Usually Ki stands for the equilibrium dissociation constant of an inhibitor or competing ligand from its target.
